From US10011638B2, “PTEN antagonist peptides and methods of using the same” (SHRINERS HOSPITALS FOR CHILDREN, priority 2014, dated 2018)
Like-named read-outs stand apart in the source and are kept apart here.

Experiments:
DRG neurons = assay: Neurite outgrowth of adult DRG neurons on CNS myelin spots; format: cell-based, mice; conditions: chosen from dose-response curve of neurite outgrowth assays of DRGs on CNS myelin
Experimental: (§1) Neurite outgrowth from neurons was performed in DRG and CGN cultures 1-5 days after growth. For DRG assay on myelin spots, the center of each culture coverslip was spotted with 2 μl of purified CNS myelin (200 μg/ml), which contains a number of axon growth inhibitors (11). DRGs were dissected out from C57BL/6 mice aged 8-10 weeks. After incubation with collagenase and 0.25% trypsin, dissociated DRG neurons were plated onto plastic coverslips in 24-well plates and grown in culture medium as previously reported (25, 48). Primary CGN cultures were prepared from cerebelli of postnatal 7-9 day C57BL/6 mice as reported previously (25, 29).
(§2) After plating, dissociated neurons were treated with vehicle, RP (10 μg/ml), PAP1 (2.5 μg/ml), PAP2 (10 μg/ml), PAP3 ([…]), PAP4 (6.7 μg/ml) and PAP5 (5 μg/ml). The doses of PAPs were chosen based on the dose-response curve obtained from neurite outgrowth assays of DRGs on CNS myelin. Neurons were fixed 5 days (DRGs) or 24 hrs (CGNs) after plating and stained for Tuj1. Images of each culture were captured with a Nikon image collecting system and neurite outgrowth was quantified with Photoshop and NIH image software (25). The total neurite length of DRGs per myelin spot was determined from 5-8 representative experiments. The neurite length of CGNs was measured as previously reported (25, 29). To determine the cellular distribution of PTEN, DRGs were stained with anti-PTEN and anti-Tuj1l antibodies in selected coverslips.

PTEN = molecular target: T1, PTEN (Homo sapiens, UniProt P60484); assay: PTEN peptide binding assay in COS-7 cells; conditions: biotinylated peptides 15 μM, 1 hour; ABC-DAB, 405 nm; compared to BioRP
T1 construct: host or cells: COS-7
T1 sequence (P60484 whole entry, species assumed): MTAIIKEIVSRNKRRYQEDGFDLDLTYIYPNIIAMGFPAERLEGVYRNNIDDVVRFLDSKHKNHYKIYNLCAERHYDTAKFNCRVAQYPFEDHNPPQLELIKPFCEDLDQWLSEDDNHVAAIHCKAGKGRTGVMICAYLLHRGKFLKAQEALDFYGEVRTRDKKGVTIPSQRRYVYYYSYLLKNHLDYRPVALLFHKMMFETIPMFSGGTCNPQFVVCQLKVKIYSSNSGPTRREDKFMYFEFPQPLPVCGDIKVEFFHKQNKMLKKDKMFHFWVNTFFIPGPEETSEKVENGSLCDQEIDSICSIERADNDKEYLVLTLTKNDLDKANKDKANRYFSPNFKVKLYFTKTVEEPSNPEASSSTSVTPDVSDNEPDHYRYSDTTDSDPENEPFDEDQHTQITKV
Experimental: COS-7 cells were cultured as previously reported (29). Forty-eight hrs after transfection, cells were incubated with purified biotinylated RP or PAPs 1-4 (15 μM) for 1 hour. Following 3 washes with PBS and fixation with 4% formaldehyde, COS-7 cells were incubated in ABC and the PAP binding signals were visualized with ABC-DAB based color reactions. The intensity of reaction color in multiple wells was read with a 96-well plate reader at 405 nm. The binding experiments were carried out in 6-12 replicates.

[1] = test system: mice with T7 dorsal over-hemisection; assay: Locomotor recovery after T7 dorsal over-hemisection SCI (BMS, grid walk, footprint); format: in vivo; conditions: vs RP; for locomotor recovery, BMS scores: s.c. 71 μg/mouse/day, 14 days, 2-5 weeks after SCI
Experimental: (§3) Adult female C57BL/6 mice (9-10 weeks old) were deeply anesthetized with intramuscular ketamine (100 mg/kg) and intraperitoneal xylazine (15 mg/kg). A complete laminectomy was performed and the dorsal part of the spinal cord was fully exposed at T6 and T7 levels (31). A dorsal over-hemisection (1.0 mm) was performed at T7 with a 30 gauge needle and a pair of microscissors to completely sever dorsal part of the spinal cord as previously reported (29, 31). To study axon growth (FIG. 5-7), mice received daily subcutaneous injections of RP, PAP2 or PAP4 at 71 μg/mouse/day beginning two days after SCI for 14 successive days (29). Mice received BDA tracer injections into the motor cortex 3 weeks after SCI (31).
(§4) Mice were perfused 5 weeks after SCI and the spinal cord blocks around the lesion were processed for 5-HT and CST labeling. In brief, transverse sections (30 μm) 5-7 mm rostral to and caudal to the injury and parasagittal sections 4 mm rostral to and 4 mm caudal to lesion were processed for 5-HT-stained serotonergic fibers and BDA-labeled CST axons. To compare axon number among different groups, 5-HT axons were counted in the spinal cord 0-3.2 mm caudal to the lesion from all parasagittal sections in each animal. To determine functional recovery, locomotion recovery was evaluated during 5 weeks of survival by measuring the BMS two days and per week after SCI, and the grid walk performance and footprint 5 weeks after SCI. For axon quantification and behavioral analysis, 8, 9, and 9 mice were used in the RP, PAP2 and PAP4 groups, respectively.

[2] = test system: mice with T7 dorsal over-hemisection; assay: Growth of 5-HT and CST fiber tracts after T7 dorsal over-hemisection SCI; format: in vivo; conditions: s.c. 71 μg/mouse/day, 5 weeks after SCI; for density of 5-HT fibers in the spinal cord 5-7 mm caudal to the lesion: 14 days from 2 days after SCI, vs RP; for CST sprouts immediately rostral to the lesion (parasagittal sections) / density of ectopic CST sprouts lateral to the dorsal CST, 5-7 mm rostral to the lesion / growth of CST sprouts caudal to the lesion: 14 days
Experimental: as §3, §4

CGNs = assay: Neurite outgrowth of cerebellar granular neurons (CGNs) on CNS myelin; format: cell-based, mice; conditions: 24 hrs after plating; myelin 50 μg/ml; compared to vehicle
Experimental: as §1
as §2, with “To determine the cellular distribution of PTEN, DRGs were stained with anti-PTEN and anti-Tuj1l antibodies in selected coverslips.” left out

SCI rats = conditions: cited from earlier work

Substance | Optimal dose (DRG neurons) [µg/mL] | peptide binding to COS-7 cells transfected with PTEN (PTEN) | locomotor recovery, BMS scores [1] | density of 5-HT fibers in the spinal cord 5-7 mm caudal to the lesion [2] | CST sprouts immediately rostral to the lesion (parasagittal sections) [2] | density of ectopic CST sprouts lateral to the dorsal CST, 5-7 mm rostral to the lesion [2] | growth of CST sprouts caudal to the lesion [2] | other results
IHCKAGKGRTGVMIC [PAP3] | 5 | higher binding affinity than PAP2 |  |  |  |  |  | 
KHKNHYKIYNLCAE [PAP2] | 10 |  | improve locomotor recovery | significantly increased | higher density | Increased density | A small number of CST sprouts grew into the distal spinal cord | 
MTAIIKEIVSRNKRR [PAP1] | 2.5 | higher binding affinity than PAP2 |  |  |  |  |  | 
PENEPFDEDQHSQITKV [PAP5] | 5 |  |  |  |  |  |  | neurite length of CGNs cultured on CNS myelin (CGNs): but not with PAP5, significantly increased
TVEEPSNPEASSSTSVTPD [PAP4] | 5 | higher binding affinity than PAP2 | improve locomotor recovery | significantly increased | very high density | Increased density | terminated rostral to the lesion epicenter | stride length of the hindpaws ([1]; footprints 5 weeks after injury): enhanced stride length
bisperoxovanadium [bpV] |  |  |  |  |  |  |  | functional recovery (SCI rats; intrathecal): improved functional recovery; functional recovery (SCI rats; systemic): improved functional recovery; levels of phosphorylated Akt and S6 in the lesioned spinal cord (SCI rats; systemic): elevated the levels of phosphorylated Akt and S6
